# Measurements reported in patent US4443436A, “C-20-Modified macrolide derivatives of the macrolide antibiotics tylosin, desmycosin, macrocin, and lactenocin” (Eli Lilly and Company, priority 1982, dated 1984).
# Like-named read-outs stand apart in the source and are kept apart here.
# Columns and labels:
# [1] = system: Pasteurella multocida 60A; test: MIC, broth-dilution microtiter test, Pasteurella multocida 60A; type: cell-based
# Source text: (§1) The MIC's in Table X were obtained using conventional broth-dilution microtiter tests.
# [2] = system: Streptococcus bovis 80; test: MIC, broth-dilution microtiter test, Streptococcus bovis 80; type: cell-based
# Source text: as §1
# [3] = system: Streptococcus Group 9960; test: MIC, standard agar-dilution assay, Streptococcus Group 9960; type: cell-based; details: Streptococcus Group 9960, agar dilution
# [4] = system: Staphylococcus aureus V41; test: MIC, standard agar-dilution assay, Staphylococcus aureus V41; type: cell-based
# [5] = system: Haemophilus influenzae Holt; test: MIC, standard agar-dilution assay, Haemophilus influenzae Holt; type: cell-based
# [6] = system: Streptococcus pyogenes C203; test: In vivo protection of mice experimentally infected with S. pyogenes C203; details: mice, doses given 1 and 4 hours post-infection; for ED50: Streptococcus pyogenes
# Procedure: The C-20 modified derivatives of this invention have shown in vivo antimicrobial activity against experimentally-induced infections in laboratory animals. When two doses of test compound were administered to mice experimentally infected with S. pyogenes C203, the activity observed was measured as an ED50 value [effective dose in mg/kg to protect 50% of the test animals: see Warren Wick, et al., J. Bacteriol. 81, 233-235 (1961)].
# [7] = system: Mycoplasma gallisepticum; test: MIC, broth-dilution microtiter test, Mycoplasma gallisepticum; type: cell-based
# Source text: as §1
# [8] = system: Mycoplasma synoviae; test: MIC, broth-dilution microtiter test, Mycoplasma synoviae; type: cell-based
# Source text: as §1
# [9] = system: Staphylococcus aureus X400; test: MIC, standard agar-dilution assay, Staphylococcus aureus X400; type: cell-based
# [10] = system: Pasteurella multocida 17E; test: MIC, broth-dilution microtiter test, Pasteurella multocida 17E; type: cell-based; details: Pasteurella multocida 17E, bovine isolate, broth-dilution microtiter
# Source text: as §1
# [11] = system: Pasteurella hemolytica 22C; test: MIC, broth-dilution microtiter test, Pasteurella hemolytica 22C; type: cell-based
# Source text: as §1
# [12] = system: Mycoplasma hyorhinis; test: MIC, broth-dilution microtiter test, Mycoplasma hyorhinis; type: cell-based
# Source text: as §1
# [13] = system: Staphylococcus aureus X1.1; test: MIC, standard agar-dilution assay, Staphylococcus aureus X1.1; type: cell-based
# [14] = system: Staphylococcus epidermidis EPI2; test: MIC, standard agar-dilution assay, Staphylococcus epidermidis EPI2; type: cell-based
# [15] = system: Streptococcus Group D X66; test: MIC, standard agar-dilution assay, Streptococcus Group D X66; type: cell-based; details: Streptococcus Group D X66, agar dilution
# [16] = system: Staphylococcus aureus; test: MIC, broth-dilution microtiter test, Staphylococcus aureus; type: cell-based
# Source text: as §1
# [17] = system: Staphylococcus epidermidis EPI1; test: MIC, standard agar-dilution assay, Staphylococcus epidermidis EPI1; type: cell-based
# [18] = system: Streptococcus pyogenes C203; test: MIC, standard agar-dilution assay, Streptococcus pyogenes C203; type: cell-based
# [19] = system: Staphylococcus aureus S13E; test: MIC, standard agar-dilution assay, Staphylococcus aureus S13E; type: cell-based
# [20] = system: Streptococcus pneumoniae Park I; test: microbe, parasite or virus in culture; type: cell-based; details: Streptococcus pneumoniae
# [21] = system: Haemophilus influenzae R252; test: MIC, standard agar-dilution assay, Haemophilus influenzae R252; type: cell-based
# [22] = C203, sc, subcutaneous, read-out: ED50, Subcutaneous
# [23] = C203, oral, read-out: ED50, Oral
# [24] = Mycoplasma hyorhinis, broth-dilution microtiter, read-out: MIC
# [25] = Staphylococcus epidermidis, EPI2
# [26] = Staphylococcus epidermidis, EPI1
# [27] = Pasteurella multocida 60A, avian isolate, broth-dilution microtiter, read-out: MIC
# [28] = Streptococcus equinus, Streptococcus bovis 80, broth-dilution microtiter, read-out: MIC
# [29] = Pasteurella hemolytica 22C, broth-dilution microtiter, read-out: MIC
structure (smiles),measurement,setting,value
"CCOC(=O)c1ccc(OCCC2CC(C)C(=O)C=CC(C)=CC(COC3OC(C)C(O)C(OC)C3OC)C(CC)OC(=O)CC(O)C(C)C2OC2OC(C)C(O)C(N(C)C)C2O)cc1 (stereo not shown) [Compound 38, 20-DH-20-O-[p-(Ethoxycarbonyl)phenyl]desmycosin]",MIC,"[1]; Pasteurella multocida, 60A",50 µg/mL
same,MIC,"[2]; Streptococcus equinus, 80",0.78 µg/mL
same,MIC,"[3]; GROUP9960, read-out: MIC",16 µg/mL
same,MIC,"[4]; Staphylococcus aureus, V41",0.5 µg/mL
same,MIC,[5]; Haemophilus influenzae,16 µg/mL
same,ED50,[6]; [22],> 10 mg/kg
same,ED50,[6]; [23],35 mg/kg
same,MIC,"[7]; Mycoplasmoides gallisepticum, Mycoplasma gallisepticum, broth-dilution microtiter, read-out: MIC",0.39 µg/mL
same,MIC,[8]; Mycoplasmopsis synoviae,1.56 µg/mL
same,MIC,"[9]; Staphylococcus aureus, X400",0.5 µg/mL
same,MIC,[10]; read-out: MIC,25 µg/mL
same,MIC,"[11]; Pasteurella, 22C",50 µg/mL
same,MIC,[12]; [24],25 µg/mL
same,MIC,"[13]; Staphylococcus aureus, X1.1",0.5 µg/mL
same,MIC,[14]; [25],0.25 µg/mL
same,MIC,[15]; read-out: MIC,8 µg/mL
same,MIC,[16],0.78 µg/mL
same,MIC,[17]; [26],0.5 µg/mL
same,MIC,"[18]; Streptococcus pyogenes, C203",0.5 µg/mL
same,MIC,"[19]; Staphylococcus aureus, S13E",0.5 µg/mL
same,MIC,[20],1 µg/mL
"CCC1OC(=O)CC(O)C(C)C(OC2OC(C)C(OC3CC(C)(O)C(O)C(C)O3)C(N(C)C)C2O)C(CCSc2nnnn2C)CC(C)C(=O)C=CC(C)=CC1COC1OC(C)C(O)C(OC)C1OC (stereo not shown) [Compound 5, 20-DH-DO-20-[(1-N-Methyltetrazol-5-yl)thio]tylosin]",MIC,[1]; [27],> 50 µg/mL
same,MIC,[2]; [28],> 50 µg/mL
same,MIC,"[3]; GROUP9960, read-out: MIC",128 µg/mL
same,MIC,"[4]; Staphylococcus aureus V41, penicillin-resistant strain, agar dilution, read-out: MIC",1 µg/mL
same,MIC,[5]; Haemophilus influenzae,> 128 µg/mL
same,ED50,[6]; [22],> 6.3 mg/kg
same,ED50,[6]; [23],56 mg/kg
same,MIC,[7]; Mycoplasmoides gallisepticum,1.56 µg/mL
same,MIC,[8]; Mycoplasmopsis synoviae,3.12 µg/mL
same,MIC,"[9]; Staphylococcus aureus, X400",2 µg/mL
same,MIC,[10]; read-out: MIC,> 50 µg/mL
same,MIC,[11]; [29],> 50 µg/mL
same,MIC,[12]; [24],> 50 µg/mL
same,MIC,"[13]; Staphylococcus aureus, X1.1",0.5 µg/mL
same,MIC,[15]; read-out: MIC,128 µg/mL
same,MIC,[16],1.56 µg/mL
same,MIC,"[17]; Staphylococcus epidermidis EPI1, agar dilution, read-out: MIC",1 µg/mL
same,MIC,"[21]; Haemophilus influenzae, R252",128 µg/mL
same,MIC,"[18]; Streptococcus pyogenes C203, agar dilution, read-out: MIC",1 µg/mL
same,MIC,"[19]; Staphylococcus aureus, S13E",2 µg/mL
same,MIC,[20],32 µg/mL
"CCC1OC(=O)CC(O)C(C)C(OC2OC(C)C(OC3CC(C)(O)C(O)C(C)O3)C(N(C)C)C2O)C(CCN=[N+]=[N-])CC(C)C(=O)C=CC(C)=CC1COC1OC(C)C(O)C(OC)C1OC (stereo not shown) [Compound 2, 20-DH-DO-20-Azidotylosin]",MIC,[1]; [27],> 50 µg/mL
same,MIC,[2]; [28],50 µg/mL
same,MIC,"[3]; GROUP9960, read-out: MIC",128 µg/mL
same,MIC,"[4]; Staphylococcus aureus, V41",1 µg/mL
same,MIC,"[5]; Haemophilus influenzae Holt, ampicillin-sensitive strain, read-out: MIC",> 128 µg/mL
same,ED50,[6]; [22],> 6.3 mg/kg
same,ED50,[6]; [23],18 mg/kg
same,MIC,[7]; Mycoplasmoides gallisepticum,1.56 µg/mL
same,MIC,[8]; Mycoplasmopsis synoviae,12.5 µg/mL
same,MIC,"[9]; Staphylococcus aureus, X400",2 µg/mL
same,MIC,[10]; read-out: MIC,> 50 µg/mL
same,MIC,[11]; [29],> 50 µg/mL
same,MIC,[12]; [24],> 50 µg/mL
same,MIC,"[13]; Staphylococcus aureus, X1.1",2 µg/mL
same,MIC,[15]; read-out: MIC,128 µg/mL
same,MIC,[16],3.12 µg/mL
same,MIC,[17]; [26],1 µg/mL
same,MIC,"[21]; Haemophilus influenzae R252, ampicillin-resistant strain, read-out: MIC",> 128 µg/mL
same,MIC,"[18]; Streptococcus pyogenes, C203",2 µg/mL
same,MIC,"[19]; Staphylococcus aureus, S13E",1 µg/mL
same,MIC,[20],32 µg/mL
"CCC1CC(C)C(=O)C=CC(C)=CC(COC2OC(C)C(O)C(O)C2OC)C(CC)OC(=O)CC(O)C(C)C1OC1OC(C)C(O)C(N(C)C)C1O (stereo not shown) [Compound 60, 20-DH-DO-Lactenocin]",MIC,[1]; [27],25 µg/mL
same,MIC,[2]; [28],6.25 µg/mL
same,MIC,"[3]; GROUP9960, read-out: MIC",8 µg/mL
same,MIC,"[4]; Staphylococcus aureus, V41",0.25 µg/mL
same,ED50,[6]; [22],3.9 mg/kg
same,ED50,[6]; [23],46 mg/kg
same,MIC,[7]; Mycoplasmoides gallisepticum,1.56 µg/mL
same,MIC,"[8]; Mycoplasmopsis synoviae, Mycoplasma synoviae, broth-dilution microtiter, read-out: MIC",> 50 µg/mL
same,MIC,"[9]; Staphylococcus aureus, X400",0.5 µg/mL
same,MIC,[10]; read-out: MIC,25 µg/mL
same,MIC,[11]; [29],25 µg/mL
same,MIC,[12]; Mycoplasma,50 µg/mL
same,MIC,"[13]; Staphylococcus aureus, X1.1",0.25 µg/mL
same,MIC,[14]; [25],0.25 µg/mL
same,MIC,[15]; read-out: MIC,8 µg/mL
same,MIC,[16],0.78 µg/mL
same,MIC,[17]; [26],0.25 µg/mL
same,MIC,"[21]; Haemophilus influenzae, R252",16 µg/mL
same,MIC,"[19]; Staphylococcus aureus, S13E",0.25 µg/mL
same,MIC,[20],0.5 µg/mL
"CCC1OC(=O)CC(O)C(C)C(OC2OC(C)C(O)C(N(C)C)C2O)C(CCI)CC(C)C(=O)C=CC(C)=CC1COC1OC(C)C(O)C(O)C1OC (stereo not shown) [Compound 57, 20-DH-DO-20-Iodolactenocin]",MIC,[1]; [27],25 µg/mL
same,MIC,"[2]; Streptococcus equinus, 80",3.12 µg/mL
same,MIC,"[3]; GROUP9960, read-out: MIC",16 µg/mL
same,MIC,"[4]; Staphylococcus aureus, V41",0.5 µg/mL
same,ED50,[6]; [22],5.2 mg/kg
same,ED50,[6]; [23],79 mg/kg
same,MIC,[7]; Mycoplasmoides gallisepticum,3.12 µg/mL
same,MIC,[8]; Mycoplasmopsis synoviae,1.56 µg/mL
same,MIC,"[9]; Staphylococcus aureus, X400",1 µg/mL
same,MIC,[10]; read-out: MIC,25 µg/mL
same,MIC,[11]; [29],25 µg/mL
same,MIC,[12]; Mycoplasma,50 µg/mL
same,MIC,"[13]; Staphylococcus aureus, X1.1",0.5 µg/mL
same,MIC,[14]; [25],0.5 µg/mL
same,MIC,[15]; read-out: MIC,16 µg/mL
same,MIC,[16],0.78 µg/mL
same,MIC,[17]; [26],0.5 µg/mL
same,MIC,"[18]; Streptococcus pyogenes, C203",0.5 µg/mL
same,MIC,"[19]; Staphylococcus aureus, S13E",0.5 µg/mL
same,MIC,[20],4 µg/mL
"CCC1OC(=O)CC(O)C(C)C(OC2OC(C)C(O)C(N(C)C)C2O)C(CCOc2ccc(CN3CCCCCC3)cc2)CC(C)C(=O)C=CC(C)=CC1COC1OC(C)C(O)C(OC)C1OC (stereo not shown) [Compound 42, 20-DH-20-O-[p-(Hexahydroazepin-1-ylmethyl)phenyl]desmycosin]",MIC,"[1]; Pasteurella multocida 60A, avian isolate, broth-dilution microtiter",12.5 µg/mL
same,MIC,"[2]; Streptococcus bovis 80, broth-dilution microtiter",3.12 µg/mL
same,MIC,[3],8 µg/mL
same,MIC,"[4]; Staphylococcus aureus V41, penicillin-resistant strain, agar dilution",0.1 µg/mL
same,MIC,"[5]; Haemophilus influenzae Holt, ampicillin-sensitive strain, agar dilution",32 µg/mL
same,"ED50, Oral",[6]; oral,> 100 mg/kg × 2
same,"ED50, Subcutaneous",[6]; subcutaneous,> 25 mg/kg × 2
same,MIC,"[7]; Mycoplasma gallisepticum, broth-dilution microtiter",0.39 µg/mL
same,MIC,"[8]; Mycoplasma synoviae, broth-dilution microtiter",0.195 µg/mL
same,MIC,"[9]; Staphylococcus aureus X400, methicillin-resistant strain, agar dilution",1 µg/mL
same,MIC,[10],12.5 µg/mL
same,MIC,"[11]; Pasteurella hemolytica 22C, broth-dilution microtiter",12.5 µg/mL
same,MIC,"[12]; Mycoplasma hyorhinis, broth-dilution microtiter",25 µg/mL
same,MIC,"[13]; Staphylococcus aureus X1.1, agar dilution",0.5 µg/mL
same,MIC,"[14]; Staphylococcus epidermidis EPI2, agar dilution",0.25 µg/mL
same,MIC,[15],8 µg/mL
same,MIC,[16]; broth-dilution microtiter,1.56 µg/mL
same,MIC,"[17]; Staphylococcus epidermidis EPI1, agar dilution",0.5 µg/mL
same,MIC,"[21]; Haemophilus influenzae R252, ampicillin-resistant strain, agar dilution",32 µg/mL
same,MIC,"[18]; Streptococcus pyogenes C203, agar dilution",0.5 µg/mL
same,MIC,"[19]; Staphylococcus aureus S13E, agar dilution",0.5 µg/mL
